In patent US4806532A, “Inhibition of epithelial phosphate transport” (Mayo Foundation for Medical Education and Research, priority 1985, dated 1989):
Structures can show the parent of a compound that is named as a salt. Where two headings read alike, the source gives them in different places.

Tests used:
[1] = biological target: T1, Na-Pi cotransporter (Rattus norvegicus, UniProt Q06496); test: Na+-gradient-dependent 32Pi uptake by renal cortical BBMV (rapid filtration); assay type: biochemical; details: for 32Pi Uptake 120 min / 32Pi Uptake 20 sec: 5 min preincubation; for 32Pi Uptake 120 min: equilibrium; for 32Pi Uptake 20 sec: mean ± SE of 3-5 experiments
T1 construct: from tissue; host or cells: rat renal cortex, brush border membrane vesicles
T1 sequence (Q06496 1-637): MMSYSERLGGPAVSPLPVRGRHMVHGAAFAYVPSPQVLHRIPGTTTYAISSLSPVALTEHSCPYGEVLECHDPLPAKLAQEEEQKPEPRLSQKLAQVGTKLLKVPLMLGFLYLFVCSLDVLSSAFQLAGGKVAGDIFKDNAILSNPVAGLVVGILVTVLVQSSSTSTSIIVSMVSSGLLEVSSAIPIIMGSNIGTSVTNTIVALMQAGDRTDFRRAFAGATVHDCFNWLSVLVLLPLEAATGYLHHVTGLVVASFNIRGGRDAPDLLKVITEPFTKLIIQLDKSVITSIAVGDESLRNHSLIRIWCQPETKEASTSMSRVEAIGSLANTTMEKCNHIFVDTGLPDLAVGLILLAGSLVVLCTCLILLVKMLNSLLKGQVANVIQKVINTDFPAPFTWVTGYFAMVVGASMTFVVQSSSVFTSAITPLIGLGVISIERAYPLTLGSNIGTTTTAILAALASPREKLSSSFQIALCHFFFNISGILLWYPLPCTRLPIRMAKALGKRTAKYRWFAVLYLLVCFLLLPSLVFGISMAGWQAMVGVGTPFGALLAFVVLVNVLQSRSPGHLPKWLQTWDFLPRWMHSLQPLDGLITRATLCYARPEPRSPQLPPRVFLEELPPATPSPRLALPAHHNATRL
Description: (§1) The brush border membrane vesicles (BBMV) were prepared from renal cortical tissue of adult male Sprague-Dawley rats of an average body weight of about 220 grams. Rats were fed ad libitum standard rat chow containing 0.7% Pi and had free access to distilled water. Rats were sacrificed under anesthesia and dissected renal cortical tissue was used for preparation of BBMV fraction by the divalent cation-precipitation procedure, employed and described in detail in J. Clin. Invest., 67, 1347 (1981) and J. Biol. Chem., 258, 5695 (1983), with the following modifications: (a) MgCl2 instead of CaCl2 was added to crude homogenate (final concentration 10 mM MgCl2) to precipitate membranes other than BBMV; (b) in the final step, BBMV were washed and equilibrated in a medium of pH=7.5, instead of pH=8.5. The enrichment and specific activities of typical BBM enzymes alkaline phosphatase (APases), γ-glutyamyl transferase (γ-GTT), leucineaminopeptidase (LAP) and maltase with use of these modifications were similar as in BBMV fractions prepared in our previous studies. As a final step in the preparative procedure, the BBMV fraction was washed and resuspended in a medium containing 300 mM mannitol and 5 mM Tris-HEPES adjusted to pH=t.5, referred to as "MTH-medium," unless specified otherwise. The analogous BBMV fractions, using the same procedure, were prepared from renal cortices of mongrel dogs, albino mice and New Zealand albino rabbits.
(§2) The BBMV uptake of ^32 Pi, D-[^3 H]-glucose, L-[^3 H]-proline and ^22 Na^+ was measured by means of a rapid filtration technique, as described in J. Clin. Invest., 67, 1347 (1981) and Am. J. Physiol., 246, F133-F139 (1984). Also, unless specified otherwise, the medium for the solute uptake assay consisted of following compounds (in final concentrations): 100 mM mannitol, 100 mM NaCl (or 100 mM KC1) and 5 mM Tris-HEPES (pH=7.5) and eitehr 0.1 mM K2 H^32 PO4, or 0.05 mM D-[^3 H]-glucose, or 0.025 mM L-[^3 H]-proline. IN the ^22 Na^+ uptake studies, the assay medium contained 100 mM ^22 NaCl (^22 NaCl about […] per tube), 100 mM mannitol and 5 mM Tris-HEPES (pH 7.5).
(§3) In most experiments, the Na^+ -gradient-dependent ^32 Pi uptake in the concentrative "uphill" phase was measured at 20 seconds period. Since Na^+ -independent Pi uptake in this time period was quantitatively minor component (<5%) of the Na^+ -gradient-dependent Pi uptake, it was not routinely subtracted.

[2] = test system: intestinal BBM alkaline phosphatase; test: Effect on intestinal BBM alkaline phosphatase (data not shown); assay type: biochemical, rat
[3] = Hydrolysis of phosphono-compounds (release of Pi) in the BBMV assay; details: 1 mM; hydrolysis to release more than 5% Pi
Excerpt: Compounds studied in the present experiments which inhibited BBM transport of Pi without hydrolysis to release more than 5% Pi are listed in Table 1.

[4] = biological target: T2, Na-Pi cotransporter (Oryctolagus cuniculus, UniProt Q28620); test: Na+-gradient-dependent 32Pi uptake by renal BBMV, rabbit; assay type: biochemical
T2 construct: were prepared from renal cortices of mongrel dogs, albino mice and New Zealand albino rabbits; from tissue; host or cells: New Zealand albino rabbit renal cortex, brush border membrane vesicles
T2 sequence (Q28620 1-642): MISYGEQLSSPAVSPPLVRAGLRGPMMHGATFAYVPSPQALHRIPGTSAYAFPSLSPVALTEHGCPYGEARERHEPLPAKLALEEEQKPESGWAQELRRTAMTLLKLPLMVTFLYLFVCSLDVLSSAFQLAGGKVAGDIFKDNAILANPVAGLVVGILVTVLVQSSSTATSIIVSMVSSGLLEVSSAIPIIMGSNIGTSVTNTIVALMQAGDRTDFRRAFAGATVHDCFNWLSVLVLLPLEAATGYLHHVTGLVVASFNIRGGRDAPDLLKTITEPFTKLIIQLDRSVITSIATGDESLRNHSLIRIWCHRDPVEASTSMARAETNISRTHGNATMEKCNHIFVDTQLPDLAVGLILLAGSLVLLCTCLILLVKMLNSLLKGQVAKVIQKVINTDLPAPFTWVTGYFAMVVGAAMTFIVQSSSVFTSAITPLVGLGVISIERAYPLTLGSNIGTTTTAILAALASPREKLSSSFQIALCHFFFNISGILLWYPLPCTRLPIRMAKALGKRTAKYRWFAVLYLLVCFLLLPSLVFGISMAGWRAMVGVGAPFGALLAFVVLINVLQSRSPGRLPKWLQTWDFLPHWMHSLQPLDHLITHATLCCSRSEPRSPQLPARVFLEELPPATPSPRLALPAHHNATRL
Description: as §1, §2, §3

[5] = 1 mM, initial uptake at 20 sec, rat kidney cortex BBMV, read-out: Δ% (inhibition as percent decrease from control) of Na+-gradient-dependent 32Pi uptake

Compound	Δ% ratio of uptake at uphill phase (20 sec) and equilibrium phase (120 min) ([1]; 0.2 mM)	32Pi Uptake 120 min ([1]; 0.2 mM)	32Pi Uptake 20 sec ([1]; 0.2 mM)	Δ% ratio of uptake at uphill phase (20 sec) and equilibrium phase (120 min) ([1]; 1.0 mM)	32Pi Uptake 120 min ([1]; 1.0 mM)	32Pi Uptake 20 sec ([1]; 1.0 mM)	inhibition at 1000 µM [1, 5]	Δ% ratio of uptake at uphill phase (20 sec) and equilibrium phase (120 min) ([1]; 5.0 mM)	32Pi Uptake 120 min ([1]; 5.0 mM)	32Pi Uptake 20 sec ([1]; 5.0 mM)	inhibition of intestinal BBM alkaline phosphatase [2]	Note: hydrolysis [3]	other results
O=C(O)CP(=O)(O)O [PAA, phosphonoacetic acid]	+305 ± 101%	320 ± 80 pmoles/mg protein	1057 ± 89 pmoles/mg protein	+331 ± 86%	274 ± 51 pmoles/mg protein	1019 ± 94 pmoles/mg protein	-18%	+261 ± 78%	269 ± 52 pmoles/mg protein	876 ± 68 pmoles/mg protein	neither TPFA or PAA inhibited	no	–
O=C(O)P(=O)(O)O [TPFA, Phosphonoformic acid, trisodium salt hexahydrate]	+262 ± 44%	264 ± 53 pmoles/mg protein	869 ± 45 pmoles/mg protein	+137 ± 27%	248 ± 47 pmoles/mg protein	541 ± 39 pmoles/mg protein	-53%	< 0.0%	239 ± 44 pmoles/mg protein	153 ± 28 pmoles/mg protein	neither TPFA or PAA inhibited	no	effect on intravesicular volume of BBMV [1]: did not alter; nature of the inhibitory effect on Pi uptake [1]: competitive; inhibition at 1000 µM ([1]; 20 s, Rat, 1 mM TPFA, read-out: percent decrease of 20 sec 32Pi-uptake relative to control value): 59.1%; inhibition at 5000 µM ([1]; 20 s, Rat, 5 mM TPFA, read-out: percent decrease of 20 sec 32Pi-uptake relative to control value): 78%; effect on 32Pi uptake by BBMV in the absence of Na+ ([1]; NaCl replaced by KCl, 1 mM TPFA, FIG. 1): had no effect; 32Pi-uptake 120 min ([1]; Rat, 1 mM TPFA, control 361 ± 9): 359 ± 8 pmoles Pi/mg protein/time; 32Pi-uptake 20 sec ([1]; Rat, 1 mM TPFA, control 1570 ± 31): 783 ± 6 pmoles Pi/mg protein/time; 32Pi-uptake 20 sec ([1]; Rat, 5 mM TPFA): 344 ± 7 pmoles Pi/mg protein/time; 32Pi-uptake 120 min ([1]; Rat, 5 mM TPFA): 379 ± 34 pmoles Pi/mg protein/time; Ki ([1]; competitive inhibition, renal cortical BBMV): 460 µM; effect on 32Pi uptake under Na+ equilibrium conditions [Na+i = Na+o] ([1]; initial fast uptake phase (0-60 seconds), data not shown): inhibited; 32Pi-uptake 120 min ([4]; 1 mM TPFA, control 551 ± 15): 532 ± 19 pmoles Pi/mg protein/time; 32Pi-uptake 20 sec ([4]; 1 mM TPFA, control 768 ± 7): 279 ± 4 pmoles Pi/mg protein/time; 32Pi-uptake 20 sec ([4]; 5 mM TPFA): 107 ± 5 pmoles Pi/mg protein/time; 32Pi-uptake 120 min ([4]; 5 mM TPFA): 549 ± 11 pmoles Pi/mg protein/time; inhibition at 1000 µM ([4]; 20 s, 1 mM TPFA, read-out: percent decrease of 20 sec 32Pi-uptake relative to control value): 63.7%; inhibition at 5000 µM ([4]; 20 s, 5 mM TPFA, read-out: percent decrease of 20 sec 32Pi-uptake relative to control value): 86.1%
